These results are taken from patent US20260125359A1, “HETEROARYL COMPOUNDS AS MULTI-TARGET PROTEIN KINASE INHIBITORS” (FUJIAN HAIXI PHARMACEUTICALS CO., LTD., priority 2023, published 2026).

One assay addresses CSF-1R (Homo sapiens, UniProt P07333). In words: CSF-1R in vitro kinase activity assay (HTRF kinEASE TK). The conditions noted are these: for inhibition at 0.01 µM: compound 10 nM, read-out: CSF-1R inhibition rate, 10 nM; for inhibition at 0.1 µM: compound 100 nM, read-out: CSF-1R inhibition rate, 100 nM. The class given is biochemical. The text has this: (§1) CSF-1R, PDGFR-α, KDR (VEGFR2) and KIT in vitro Kinase Activity Assay:
(§2) • ENVISION (Perkinelmer, 2104) • White 384-well MicroPlate (Cat #264706, Nunc) • HTRF kinEASE TK kit main reagents (Cat #62TKOPEC, Cisbio) • TK-biotin substrate • Streptavidin-XL665 • TK Antibody-Cryptate • 5× Enzymatic buffer (5×KB) • Staphylococcal enterotoxin B (SEB) • HTRF Detection buffer • CSF-1R (Cat #PV3249, Invitrogen) • PDGFR-α (Cat #PV3811, Invitrogen) • KDR (Cat #PV3660, Invitrogen) • KIT (Cat #08-156, Carna) • ATP 10 mM (Cat #PV3227, Invitrogen) • DTT 1 M (Cat #D5545, Sigma) • MgCl2 1 M (Cat #M8266, Sigma) • MnCl2 1 M (Cat #244589, Sigma)
(§3) Dilute Substrate-TK and ATP to 5× of the reaction concentration using 1× Kinase Buffer.
(§4) Prepare the 5× enzyme working solution using 1× Kinase Buffer.
(§5) Prepare the 4×Sa-XL665 working solution using Detection Buffer.
(§6) Dilute TK-Ab-Cryptate 100 times using Detection Buffer to prepare the working solution.
(§7) After all reagents were prepared according to the methods described above, except for the enzyme, they were equilibrated to room temperature before starting the sample addition. • a) First, 2.5% DMSO solutions were prepared separately using the pre-prepared 1× kinase buffer (DMSO concentrations that were too high could affect the reaction, so the final concentration of DMSO was controlled at 1%). Then, the corresponding 2.5% DMSO solution for the enzyme was used to dilute the test compounds. Compounds were screened with two concentrations of 100 nM and 10 nM. Except for the control wells, 4 μL of the diluted test compound solution was added to the reaction wells, and 4 μL of the pre-prepared 2.5% DMSO solution was added to the control wells. • b) 2 μL of the pre-prepared TK-biotin substrate solution at the corresponding concentration for the kinase was added to all reaction wells. • c) 2 μL of the pre-prepared enzyme solution at the corresponding concentration was added to all reaction wells except the negative control wells. For the negative control wells, 2 μL of 1× kinase buffer corresponding to the enzyme was added to make up the volume. The plate was sealed with sealing film, mixed gently, and incubated at room temperature for 10 min to allow the compounds to fully interact with the enzyme. • d) 2 μL of the ATP solution at the corresponding concentration for the enzyme was added to all reaction wells to initiate the kinase reaction. ATP concentrations and reaction times for enzyme screening are shown in Table 26 • e) Five minutes before the end of the kinase reaction, the detection solution was prepared. The detection buffer from the kit was used to prepare detection solutions for Streptavidin-XL665 and TK antibody europium cryptate (1:100) at the appropriate concentrations for the two enzymes. • f) After the kinase reaction was completed, 5 μL of the diluted Streptavidin-XL665 solution was added to all reaction wells. After mixing, the diluted TK antibody europium cryptate detection solution was immediately added. • g) The plate was sealed and mixed, incubated at room temperature for 1 hour, and the fluorescence signal was detected using the ENVISION (PerkinElmer) instrument (excitation at 320 nm, emission at 665 nm and 615 nm). The inhibition rate for each well was calculated based on the full-activity control wells and background signal wells, and the average value of the replicates was taken.

In the next assay the target is KIT (Homo sapiens, UniProt P10721). The assay is described as follows: KIT in vitro kinase activity assay (HTRF kinEASE TK). The class given is biochemical. The following applies: for inhibition at 0.01 µM: compound 10 nM, read-out: KIT inhibition rate, 10 nM; for inhibition at 0.1 µM: compound 100 nM, read-out: KIT inhibition rate, 100 nM.
KIT, sequence (P10721 26-976): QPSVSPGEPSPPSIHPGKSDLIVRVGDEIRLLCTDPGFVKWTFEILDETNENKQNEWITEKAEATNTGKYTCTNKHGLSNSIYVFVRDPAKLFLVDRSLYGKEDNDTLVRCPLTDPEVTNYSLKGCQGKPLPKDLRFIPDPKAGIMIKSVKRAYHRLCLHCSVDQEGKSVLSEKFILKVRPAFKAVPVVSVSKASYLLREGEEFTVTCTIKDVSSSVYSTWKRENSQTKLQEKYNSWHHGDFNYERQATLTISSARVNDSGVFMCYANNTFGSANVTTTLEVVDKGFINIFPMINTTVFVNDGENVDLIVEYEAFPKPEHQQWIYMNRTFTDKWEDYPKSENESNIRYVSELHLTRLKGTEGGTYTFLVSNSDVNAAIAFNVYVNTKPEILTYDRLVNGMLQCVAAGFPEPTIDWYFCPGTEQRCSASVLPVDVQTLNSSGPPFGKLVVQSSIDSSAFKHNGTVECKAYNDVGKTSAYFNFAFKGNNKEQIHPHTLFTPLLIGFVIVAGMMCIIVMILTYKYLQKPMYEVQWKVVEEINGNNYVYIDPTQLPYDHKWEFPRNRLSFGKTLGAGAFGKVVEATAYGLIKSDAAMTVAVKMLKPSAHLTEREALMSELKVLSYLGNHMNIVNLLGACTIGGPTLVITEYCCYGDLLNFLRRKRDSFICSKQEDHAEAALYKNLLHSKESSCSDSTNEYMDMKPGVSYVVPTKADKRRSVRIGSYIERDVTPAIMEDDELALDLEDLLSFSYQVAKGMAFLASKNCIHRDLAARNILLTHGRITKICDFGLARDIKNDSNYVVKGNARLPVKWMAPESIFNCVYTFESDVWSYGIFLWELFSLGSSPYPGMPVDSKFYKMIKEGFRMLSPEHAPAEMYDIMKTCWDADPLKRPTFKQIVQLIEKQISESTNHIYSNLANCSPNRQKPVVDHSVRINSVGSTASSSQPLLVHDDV
Text: as §1, §2, §3, §4, §5, §6, §7
For orientation: TR-FRET usually uses a lanthanide donor and a delayed reading to cut background.

The target in the next assay is DDR1 (Homo sapiens, UniProt Q08345). In words: DDR1 in vitro kinase activity assay (LanthaScreen Eu-anti-GST antibody / Kinase Tracer 178). The class given is binding. The following applies: for inhibition at 0.01 µM: compound 10 nM, read-out: DDR1 inhibition rate, 10 nM; for inhibition at 0.1 µM: compound 100 nM, read-out: DDR1 inhibition rate, 100 nM. As for the experimental part:
DDR1 in vitro Kinase Activity Assay:
• ENVISION (Perkinelmer, 2104) • White 384-well MicroPlate (Cat #264706, Nunc) • DDR1 (Cat #PV6047, Invitrogen) • 5× Kinase Buffer A (Cat #PV3189, Invitrogen) • Kinase Tracer 178 (Cat #PV5593, Invitrogen) • LanthaScreen® Eu-anti-GST Antibody (Cat #PV5594, Invitrogen)
The compounds to be tested were tested at two concentrations of 100 nM and 10 nM.
Kinase/Antibody Mixtures Preparation: Dilute Kinase/Antibody Mixtures with 1× Kinase Buffer to form 3× working solutions with final concentrations of 5 nM kinase and 2 nM Eu-Anti-GST Antibody, respectively.
Kinase Tracer 178 Preparation: Dilute Kinase Tracer 178 with 1× Kinase Buffer to make a 3× working solution with a final concentration of 10 nM.
After all reagents were prepared according to the methods described above, except for the enzyme, they were equilibrated to room temperature before starting the sample addition. • a) First, 3% DMSO solutions were prepared separately using the pre-prepared 1× kinase buffer (DMSO concentrations that were too high could affect the reaction, so the final concentration of DMSO was controlled at 1%). Then, the corresponding 3% DMSO solution for the enzyme was used to dilute the test compounds. Compounds were screened with two concentrations of 100 nM and 10 nM. Except for the control wells, 5 μL of the diluted test compound solution was added to the reaction wells, and 5 μL of the pre-prepared 3% DMSO solution was added to the control wells. • b) 5 μL of the pre-prepared Kinase/Antibody mixtures was added to all reaction wells except the negative control wells. For the negative control wells, 5 μL of 1× kinase buffer corresponding to the enzyme was added to make up the volume. • c) 5 μL of the pre-prepared Kinase Tracer 178 solution was added to all reaction wells. • d) The plate was sealed and mixed, incubated at room temperature for 1 hour, and the fluorescence signal was detected using the ENVISION (PerkinElmer) instrument (excitation at 340 nm, emission at 665 nm and 615 nm). The inhibition rate for each well was calculated based on the full-activity control wells and background signal wells, and the average value of the replicates was taken.

DDR1, sequence (Q08345 19-913): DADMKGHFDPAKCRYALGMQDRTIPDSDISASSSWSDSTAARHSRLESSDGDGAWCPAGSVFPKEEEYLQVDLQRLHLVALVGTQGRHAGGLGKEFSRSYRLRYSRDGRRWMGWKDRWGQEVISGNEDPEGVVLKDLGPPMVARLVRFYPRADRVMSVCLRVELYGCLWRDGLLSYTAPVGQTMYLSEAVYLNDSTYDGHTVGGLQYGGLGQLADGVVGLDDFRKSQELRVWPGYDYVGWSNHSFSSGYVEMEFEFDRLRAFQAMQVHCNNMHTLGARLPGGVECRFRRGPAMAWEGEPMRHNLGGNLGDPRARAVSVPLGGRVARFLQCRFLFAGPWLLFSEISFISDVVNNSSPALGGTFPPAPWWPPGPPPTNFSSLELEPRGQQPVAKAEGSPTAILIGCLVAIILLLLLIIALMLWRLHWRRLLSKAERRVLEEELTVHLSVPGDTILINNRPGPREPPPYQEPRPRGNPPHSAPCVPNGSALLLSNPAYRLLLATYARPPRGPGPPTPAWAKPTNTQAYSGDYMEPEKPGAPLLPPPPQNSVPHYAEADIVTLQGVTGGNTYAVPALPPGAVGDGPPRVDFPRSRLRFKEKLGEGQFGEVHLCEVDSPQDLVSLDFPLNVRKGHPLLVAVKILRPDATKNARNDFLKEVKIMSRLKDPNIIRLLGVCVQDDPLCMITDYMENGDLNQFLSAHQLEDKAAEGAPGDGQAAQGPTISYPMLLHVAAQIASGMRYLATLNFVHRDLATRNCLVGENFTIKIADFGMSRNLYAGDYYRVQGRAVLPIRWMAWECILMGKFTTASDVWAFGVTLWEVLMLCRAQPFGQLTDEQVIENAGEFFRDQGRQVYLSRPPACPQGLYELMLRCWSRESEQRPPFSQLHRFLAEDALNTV
CSF-1R, sequence (P07333 20-972): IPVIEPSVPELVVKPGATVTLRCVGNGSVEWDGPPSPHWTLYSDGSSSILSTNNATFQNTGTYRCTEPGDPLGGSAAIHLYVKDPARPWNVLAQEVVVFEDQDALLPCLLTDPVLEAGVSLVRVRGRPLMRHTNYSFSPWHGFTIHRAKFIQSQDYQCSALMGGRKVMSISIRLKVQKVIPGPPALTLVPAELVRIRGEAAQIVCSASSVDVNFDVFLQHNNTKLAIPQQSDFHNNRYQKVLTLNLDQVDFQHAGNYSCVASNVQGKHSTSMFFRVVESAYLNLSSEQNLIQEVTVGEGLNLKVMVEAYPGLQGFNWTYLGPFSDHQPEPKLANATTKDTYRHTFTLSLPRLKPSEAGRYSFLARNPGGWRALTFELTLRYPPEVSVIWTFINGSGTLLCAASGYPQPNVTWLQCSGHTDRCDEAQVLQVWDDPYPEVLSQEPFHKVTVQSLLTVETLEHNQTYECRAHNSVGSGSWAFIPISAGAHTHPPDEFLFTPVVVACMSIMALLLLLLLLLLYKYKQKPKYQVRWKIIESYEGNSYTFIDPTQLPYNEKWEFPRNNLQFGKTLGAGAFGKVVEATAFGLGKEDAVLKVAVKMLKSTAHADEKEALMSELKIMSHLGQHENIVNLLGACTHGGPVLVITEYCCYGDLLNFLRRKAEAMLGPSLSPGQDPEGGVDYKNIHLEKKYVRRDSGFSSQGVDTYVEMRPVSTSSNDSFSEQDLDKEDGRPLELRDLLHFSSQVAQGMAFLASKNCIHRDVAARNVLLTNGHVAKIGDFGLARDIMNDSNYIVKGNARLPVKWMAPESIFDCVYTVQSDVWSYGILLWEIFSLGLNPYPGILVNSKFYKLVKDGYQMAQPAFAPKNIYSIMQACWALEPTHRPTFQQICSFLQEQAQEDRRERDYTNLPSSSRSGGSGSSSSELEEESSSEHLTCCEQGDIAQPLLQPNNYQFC

In the case of `Cn1cc(-c2cnc(N)c(O[C@H]3CCc4c(C(=O)Nc5cccc(C6CC6)c5)cccc43)c2)cn1` [Compound 4, (S)-1-((2-amino-5-(1-methyl-1H-pyrazol-4-yl)pyridin-3-yl)oxy)-N-(3-cyclopropylphenyl)-2,3-dihydro-1H-indene-4-carboxamide], the inhibition – broadly, the relative decrease from the control value, in per cent – at 0.01 µM on CSF-1R came out at 80.1%; on KIT it was 76.8%; on DDR1, 88.6%. The inhibition at 0.1 µM is 89.8% at CSF-1R, 99.2% at KIT and 98.2% on DDR1.
Turning to `Cc1cccc(NC(=O)c2cccc3c2CC[C@@H]3Nc2cncc(-c3cnn(C)c3)c2)c1` [Compound 13, (S)-1-((5-(1-methyl-1H-pyrazol-4-yl)pyridin-3-yl)amino)-N-(m-tolyl)-2,3-dihydro-1H-indene-4-carboxamide], the inhibition at 0.01 µM on CSF-1R worked out at 79.9%; on KIT, 73%; at DDR1, 90.2%. In addition, the inhibition at 0.1 µM at CSF-1R is 93.5%; at KIT it was 97.5%; at DDR1, 95.1%.
For the molecule `Cn1cc(-c2cncc(N[C@H]3CCc4c(C(=O)Nc5cncc(Cl)c5)cccc43)c2)cn1` [Compound 14aa, (S)—N-(5-chloropyridin-3-yl)-1-((5-(1-methyl-1H-pyrazol-4-yl)pyridin-3-yl)amino)-2,3-dihydro-1H-indene-4-carboxamide], the inhibition at 0.01 µM is 74.6% at CSF-1R, 61.9% on KIT and 93.2% at DDR1. Moreover, the inhibition at 0.1 µM came to 95.3% on CSF-1R, 97.3% on KIT and 104% at DDR1.
Regarding `Cn1cc(-c2cncc(N[C@H]3CCc4c(C(=O)Nc5ccc(C(F)(F)F)nc5)cccc43)c2)cn1` [Compound 14ah], the inhibition at 0.01 µM at CSF-1R worked out at 41%; on KIT, 11.3%; at DDR1, 37.9%. Besides, the inhibition at 0.1 µM worked out at 101% on CSF-1R, 83.3% at KIT and 85.6% at DDR1.
With `CN1CCc2ccc(NC(=O)c3cccc4c3CC[C@@H]4Nc3cncc(-c4cnn(C)c4)c3)cc2C1` [Compound 14ap], the figures for the inhibition at 0.01 µM on CSF-1R, at KIT and at DDR1 were 63.5%, 30.5% and 75.8%, respectively. The results for the inhibition at 0.1 µM on CSF-1R, on KIT and on DDR1 were 96.7%, 80.7% and 100%, respectively.
In the case of `Cc1cncc(NC(=O)c2cccc3c2CC[C@@H]3Nc2cncc(-c3cnn(C)c3)c2)c1` [Compound 14as], the inhibition at 0.01 µM at CSF-1R stood at 89.7%; at KIT it was 58.7%; on DDR1, 94.7%. Moreover, the inhibition at 0.1 µM was 97% on CSF-1R, 94.7% at KIT and 103% at DDR1.
Take `CN1CCc2nc(NC(=O)c3cccc4c3CC[C@@H]4Nc3cncc(-c4cnn(C)c4)c3)sc2C1` [Compound 14ba]: the inhibition at 0.01 µM on CSF-1R was 42.1%; on KIT, 60.1%; on DDR1 it was 32.4%. Further, the inhibition at 0.1 µM stood at 95.9% at CSF-1R, 95% at KIT and 61.4% at DDR1.
As to `Cc1cccc(C(=O)Nc2cccc3c2CC[C@@H]3Oc2cncc(-c3cnn(C)c3)c2)c1` [Compound 15, (S)-3-methyl-N-(1-((5-(1-methyl-1H-pyrazol-4-yl)pyridin-3-yl)oxy)-2,3-dihydro-1H-inden-4-yl)benzamide], the inhibition at 0.01 µM at CSF-1R stood at 49%; on KIT it was 13.3%; at DDR1 it was 15.9%. Also, the results for the inhibition at 0.1 µM at CSF-1R, at KIT and at DDR1 were 90.5%, 31.6% and 88%, respectively.
